# Test results as given in US20250154202A1, “CYCLIC EPITOPE TAGS” (BIONTECH SE, priority 2022, published 2025).
# Several values for one entry are separate records, joined by “and”; a condition that tells them apart may be missing. Equal entries are not always repeated. Bridge positions count the residues as written; N and C are the ends. Square brackets hold non-standard residues; d marks the D form. Peptide text beside a SMILES is read from it.
# What was measured:
# [1] = Plasma stability, mouse plasma; settings: for remaining at 1 h, 10 µM / remaining at 3 h, 10 µM / remaining at 6 h, 10 µM: Balb C, Li-heparin plasma; for remaining at 1 h, 10 µM / remaining at 3 h, 10 µM / remaining at 6 h, 10 µM / half-life: mouse; for Conc. (% of T0) / Mean (compound concentration) / Tube 2 (compound concentration) / Tube 1 (compound concentration) / half-life: mouse plasma, 37° C.; for half-life: plasma
# NbALFA = assay: SPR measurements of NbALFA binding (Biacore T200, multi cycle kinetics, 1:1 binding model); settings: for Kd / ka / kd: 25° C., HBS-EP+ buffer, biotinylated NbALFA captured
# Method: Affinity measurements were performed using a Biacore T200 (GE Healthcare, Biacore T200 control Software 3.2). […] A freshly docked Biotin CAPture chip was rehydrated overnight in the instrument (standby mode). […] The immobilization of the Nanobody was done for 180 s at 10 μL/min on FC2 followed by quenching of unbound streptavidin by 0.1 mM biocytin for 60 s and 30 μL/min on both flow cells. […] After each cycle, the surface was regenerated for 120 s with 10 μL/min using regeneration solution. All measurements were performed at 25° C. using HBS-EP+ buffer (Cytiva Europe, Cat. no BR100669). The control responses from FC1 were subtracted by the sample measurement in FC2 (FC2−FC1) followed by subtraction of the 0 nM blank injection. Resulting binding curves of this multi cycle kinetic experiment were fitted using the Biacore T200 Evaluation Software 3.2 and a 1:1 binding model.
# [2] = Plasma stability, human plasma; settings: for remaining at 1 h, 10 µM / remaining at 3 h, 10 µM / remaining at 6 h, 10 µM / half-life: human; for remaining at 1 h, 10 µM / remaining at 3 h, 10 µM / remaining at 6 h, 10 µM: human Li-heparin plasma; for half-life: plasma
# Method: Plasma stability measurements were performed by spiking 5 μl of a 1 mM compound stock solution in DMSO into 495 μl of human or mouse Li-heparin plasma (Innovative Research, Cat. No, IPLALIH5OML (human) and IMS-BC-N (Balb C mouse). The spiked plasma was distributed in 50 μl aliquots into capped PCR tubes for incubation at 37° C. At each time point (0, 2, 6, 24 hours*) 3*aliquots were withdrawn from the incubator. Enzymatic reactions were quenched directly after withdrawal by adding 100 μl of acetonitrile/formic acid=99/1 (v/v). Quenched samples were stored at ambient temperature until the end of the incubation period (24 hrs*). After centrifugation, the supernatant was transferred into fresh vials and analyzed by LC-MS/MS in ESI positive mode (Waters ACQUITY UPLC I-Class System (SM-FTN) with Xevo TQD triple quadrupole mass spectrometer with control software Waters MassLynx). […] Values below the limit of quantification (0.1 μM) and outliers of triplicate results were excluded from further calculations. An exponential regression curve was fitted onto the concentration results. Half-life times were calculated from the slope of the regression curve (t1/2=ln(2)/slope).
# For some samples, as indicated below, the incubation time was 6 hours. The 24 hour data was measured in triplicates whereas the 6 hour data was measured in duplicates.
# [3] = timepoint 0 h, calibration range 0.1 to 10 μM
# [4] = Flag (half-life, assay exceeded)
# [5] = Half-life time, incubation 24 h (triplicates) or 6 h (duplicates)
# [6] = human plasma, 37° C., timepoint 0 h
# [7] = human plasma, 37° C., timepoint 0 h, calibration range 0.1 to 10 μM
# [8] = human plasma, 37° C., timepoint 1 h
# [9] = human plasma, 37° C., timepoint 3 h
# [10] = human plasma, 37° C., timepoint 6 h
# [11] = Flag (half-life, assay exceeded), human plasma, 37° C.
# [12] = Half-life time, human plasma, 37° C., incubation 24 h (triplicates) or 6 h (duplicates)
# [13] = Conc. (% of T0), human plasma, 37° C., timepoint 1 h
# [14] = Conc. (% of T0), human plasma, 37° C., timepoint 3 h
"remaining at 1 h, 10 µM [1]","remaining at 3 h, 10 µM [1]","remaining at 6 h, 10 µM [1]",Conc. (% of T0) ([1]; timepoint 0 h),Mean (compound concentration) ([1]; timepoint 0 h),Tube 2 (compound concentration) ([1]; timepoint 0 h),"Tube 1 (compound concentration) [1, 3]",Mean (compound concentration) ([1]; timepoint 1 h),Tube 1 (compound concentration) ([1]; timepoint 1 h),Tube 2 (compound concentration) ([1]; timepoint 1 h),Mean (compound concentration) ([1]; timepoint 3 h),Tube 1 (compound concentration) ([1]; timepoint 3 h),Tube 2 (compound concentration) ([1]; timepoint 3 h),Mean (compound concentration) ([1]; timepoint 6 h),Tube 1 (compound concentration) ([1]; timepoint 6 h),Tube 2 (compound concentration) ([1]; timepoint 6 h),"half-life [1, 4]","half-life [1, 5]","half-life [2, 11]","half-life [2, 12]",Structure (SMILES),other results
88.4%,83.1%,73.7%,100.0 % of T0,3.073,3.145,3.000 x,2.717,2.773 x,2.661,2.553,2.604 x,2.501,2.265,2.258 x,2.272,> 6 h,14.9 h,> 6 h,20.8 h,"CC(=O)N1CCC[C@H]1C(=O)N[C@@H](CO)C(=O)N[C@@H](CCCNC(=N)N)C(=O)N[C@@H](CC(C)C)C(=O)N[C@H]1CCC(=O)NCCCC[C@@H](C(=O)N[C@@H](CCCNC(=N)N)C(=O)N[C@@H](CCCNC(=N)N)C(=O)N[C@@H](CC(C)C)C(=O)N[C@H](C(=O)N[C@@H](CCC(=O)O)C(N)=O)[C@@H](C)O)NC(=O)[C@H](CC(C)C)NC(=O)[C@H](CCC(=O)O)NC(=O)[C@H](CCC(=O)O)NC1=O [SD15806, Ac-Pro-Ser-Arg-Leu-(cyclo5)Glu-Glu-Glu-Leu-(cyclo9)Lys-Arg-Arg-Leu-Thr-Glu-NH2] (Ac-PSRLEEELKRRLTE-NH2; lactam 5-9)","Kd (NbALFA): 1.43 nM; ka (NbALFA): 3.44e+09 M⁻¹ s⁻¹; kd (NbALFA): 4.94 s⁻¹; Conc. (% of T0) [2, 6]: 100.0 % of T0; Mean (compound concentration) [2, 6]: 3.040; Tube 2 (compound concentration) [2, 6]: 2.965; Tube 1 (compound concentration) [2, 7]: 3.114 x; Mean (compound concentration) [2, 8]: 2.859; Tube 1 (compound concentration) [2, 8]: 2.843 x; Tube 2 (compound concentration) [2, 8]: 2.874; Mean (compound concentration) [2, 9]: 2.629; Tube 1 (compound concentration) [2, 9]: 2.772 x; Tube 2 (compound concentration) [2, 9]: 2.486; Mean (compound concentration) [2, 10]: 2.476; Tube 1 (compound concentration) [2, 10]: 2.534 x; Tube 2 (compound concentration) [2, 10]: 2.417; remaining at 1 h, 10 µM [2, 13]: 94%; remaining at 3 h, 10 µM [2, 14]: 86.5%; remaining at 6 h, 10 µM ([2]; Conc. (% of T0), human plasma, 37° C., timepoint 6 h): 81.4%"
78.7%,60.9%,37%,100.0 % of T0,2.172,2.194,2.149 x,1.710,1.726 x,1.693,1.322,1.321 x,1.323,0.804,0.803 x,0.804,–,4.32 h,> 6 h,6.07 h,"CC(=O)N1CCC[C@H]1C(=O)N[C@@H](CO)C(=O)N[C@@H](CCCNC(=N)N)C(=O)N[C@@H](CC(C)C)C(=O)N[C@@H](CCC(=O)O)C(=O)N[C@H]1CSSC[C@H](C(=O)N[C@@H](CCCNC(=N)N)C(=O)N[C@@H](CCCNC(=N)N)C(=O)N[C@@H](CC(C)C)C(=O)N[C@H](C(=O)N[C@@H](CCC(=O)O)C(N)=O)[C@@H](C)O)NC(=O)[C@H](CC(C)C)NC(=O)[C@H](CCC(=O)O)NC1=O [SD15807, Ac-Pro-Ser-Arg-Leu-Glu-(cyclo6)Cys-Glu-Leu-(cyclo9)dCys-Arg-Arg-Leu-Thr-Glu-NH2] (Ac-PSRLECEL[dC]RRLTE-NH2; disulfide 6-9)","Conc. (% of T0) [2, 6]: 100.0 % of T0; Mean (compound concentration) [2, 6]: 2.217 and 2.958; Tube 2 (compound concentration) [2, 6]: 2.230 and 3.034; Tube 1 (compound concentration) [2, 7]: 2.203 x and 2.882 x; Mean (compound concentration) [2, 8]: 2.093 and 2.872; Tube 1 (compound concentration) [2, 8]: 2.094 x and 2.884 x; Tube 2 (compound concentration) [2, 8]: 2.092 and 2.860; Conc. (% of T0) ([2]; human plasma, 37° C., timepoint 1 h, 60 min): 97.1 % of T0; Mean (compound concentration) [2, 9]: 1.662 and 2.596; Tube 1 (compound concentration) [2, 9]: 1.583 x and 2.532 x; Tube 2 (compound concentration) [2, 9]: 1.740 and 2.660; Conc. (% of T0) ([2]; human plasma, 37° C., timepoint 3 h, 180 min): 87.8 % of T0; Conc. (% of T0) ([2]; human plasma, 37° C., timepoint 6 h, 360 min): 51.2 % of T0 and 77.7 % of T0; remaining at 1 h, 10 µM [2, 13]: 94.4%; remaining at 3 h, 10 µM [2, 14]: 75%"
86.9%,73.7%,61.1%,100.0 % of T0,3.198,3.173,3.223 x,2.780,2.668 x,2.892,2.357,2.398 x,2.316,1.955,2.018 x,1.892,> 6 h,8.74 h,> 6 h,16.1 h,"CC(=O)N1CCC[C@H]1C(=O)N[C@@H](CO)C(=O)N[C@@H](CCCNC(=N)N)C(=O)N[C@@H](CC(C)C)C(=O)N[C@@H](CCC(=O)O)C(=O)N[C@H]1CCC(=O)NCCCC[C@H](C(=O)N[C@@H](CCCNC(=N)N)C(=O)N[C@@H](CC(C)C)C(=O)N[C@H](C(=O)N[C@@H](CCC(=O)O)C(N)=O)[C@@H](C)O)NC(=O)[C@H](CCCNC(=N)N)NC(=O)[C@H](CC(C)C)NC(=O)[C@H](CCC(=O)O)NC1=O [SD15808, Ac-Pro-Ser-Arg-Leu-Glu-(cyclo6)Glu-Glu-Leu-Arg-(cyclo10)dLys-Arg-Leu-Thr-Glu-NH2] (Ac-PSRLEEELR[dK]RLTE-NH2; lactam 6-10)",Kd (NbALFA): 0.038 nM; ka (NbALFA): 1.35e+07 M⁻¹ s⁻¹; kd (NbALFA): 0.000513 s⁻¹; binding with respect to NbALFA (NbALFA; in words): very good binding

Structure (SMILES),"remaining at 1 h, 10 µM [1]","remaining at 3 h, 10 µM [1]","remaining at 6 h, 10 µM [1]",Conc. (% of T0) ([1]; timepoint 0 h),Mean (compound concentration) ([1]; timepoint 0 h),Tube 2 (compound concentration) ([1]; timepoint 0 h),"Tube 1 (compound concentration) [1, 3]",Mean (compound concentration) ([1]; timepoint 1 h),Tube 1 (compound concentration) ([1]; timepoint 1 h),Tube 2 (compound concentration) ([1]; timepoint 1 h),Mean (compound concentration) ([1]; timepoint 3 h),Tube 1 (compound concentration) ([1]; timepoint 3 h),Tube 2 (compound concentration) ([1]; timepoint 3 h),Mean (compound concentration) ([1]; timepoint 6 h),Tube 1 (compound concentration) ([1]; timepoint 6 h),Tube 2 (compound concentration) ([1]; timepoint 6 h),"half-life [1, 4]","half-life [1, 5]","half-life [2, 11]","half-life [2, 12]",other results
"CC(=O)N1CCC[C@H]1C(=O)N[C@@H](CO)C(=O)N[C@@H](CCCNC(=N)N)C(=O)N[C@@H](CC(C)C)C(=O)N[C@@H](CCC(=O)O)C(=O)N[C@H]1CCCCNC(=O)CC[C@@H](C(=O)N[C@@H](CCCNC(=N)N)C(=O)N[C@@H](CC(C)C)C(=O)N[C@H](C(=O)N[C@@H](CCC(=O)O)C(N)=O)[C@@H](C)O)NC(=O)[C@H](CCCNC(=N)N)NC(=O)[C@H](CC(C)C)NC(=O)[C@H](CCC(=O)O)NC1=O [SD15805, Ac-Pro-Ser-Arg-Leu-Glu-(cyclo6)Lys-Glu-Leu-Arg-(cyclo10)Glu-Arg-Leu-Thr-Glu-NH2] (Ac-PSRLEKELRERLTE-NH2; lactam 6-10)",82.1%,78.3%,53.8%,100.0 % of T0,2.697,2.811,2.583 x,2.213,2.223 x,2.203,2.112,2.125 x,2.099,1.450,1.429 x,1.471,> 6 h,7.29 h,> 6 h,13.8 h,"Kd (NbALFA): 0.103 nM; ka (NbALFA): 9.33e+06 M⁻¹ s⁻¹; kd (NbALFA): 0.000964 s⁻¹; Conc. (% of T0) [2, 6]: 100.0 % of T0; Mean (compound concentration) [2, 6]: 2.836; Tube 2 (compound concentration) [2, 6]: 2.777; Tube 1 (compound concentration) [2, 7]: 2.894 x; Mean (compound concentration) [2, 8]: 2.507; Tube 1 (compound concentration) [2, 8]: 2.529 x; Tube 2 (compound concentration) [2, 8]: 2.485; Mean (compound concentration) [2, 9]: 2.356; Tube 1 (compound concentration) [2, 9]: 2.408 x; Tube 2 (compound concentration) [2, 9]: 2.304; Mean (compound concentration) [2, 10]: 2.046; Tube 1 (compound concentration) [2, 10]: 2.046 x; Tube 2 (compound concentration) [2, 10]: 2.045; remaining at 1 h, 10 µM [2]: 88.4%; remaining at 3 h, 10 µM [2]: 83.1%; remaining at 6 h, 10 µM [2]: 72.1%"
